Entries after “also recorded” stand apart in the source; their conditions may differ.
Key:
[1] = system: patients with opioid use disorder (DSM-5 moderate to severe) using opioids for at least three months; assay: Medical chart review of a fifteen-patient outpatient neurology cohort whose opioids were replaced with low-dose Lyrica (pregabalin); format: in vivo, human
Protocol: Summary of Experimental Results: Over the span of several years, the present inventor, who is a practicing neurologist, tested various different drugs at varying doses in an attempt to assist patients in their outpatient general neurological practice with cessation of opioid use. Through extensive experimentation, the physician discovered that 25 mg of Lyrica (pregabalin) T.I.D. successfully replaced opioids in a few of their patients, they subsequently expanded their research to other patients.
The charts for the fifteen (15) patients of this cohort were evaluated to ascertain the date that pregabalin was initiated, and the starting dose; the pregabalin dose as of the last available medical record; concomitant pain/CNS medications and concomitant non-pain/CNS medications; records of opioid use, type of opioid and dose (when available); and the temporal relationship between starting pregabalin and no longer requiring opioids. The medications in patient charts were compared with the accompanying medication list for each patient. As these were medical charts, the review was conducted to the extent that information was available.
Diagnosis of opioid use disorder: As a part of the medical chart review, the investigating physician assessed the fifteen (15) patients against the DSM-5 diagnostic criteria for OUD, defined “ . . . as a problematic pattern of opioid use leading to clinically significant impairment or distress, as manifested by at least two (2) pre-defined symptoms.” These criteria include eleven symptoms or behaviors occurring within a 12-month period. A diagnosis of mild OUD requires the presence of 2-3 symptoms, moderate 4-5 symptoms, and severe 6 or more symptoms. Of the fifteen (15) patients, seven (7) had scores in the moderate range and eight (8) had scores in the severe range.

neuropathic pain = settings: doses of up to 150 mg a day; cited from earlier work

CC(C)C[C@H](CN)CC(=O)O [pregabalin, (S)-(+)-3-aminomethyl-5-methyl-hexanoic acid]
patients for whom opioids were successfully replaced ([1]; 25 mg Lyrica (pregabalin) T.I.D., patients had been using opioids for at least three months, cohort of 15): 15 patients | cravings for opioids ([1]; each of the fifteen patients, low-dose pregabalin): complete cessation of cravings for opioids | side effects or withdrawal symptoms ([1]; fifteen patients, opioids replaced with low-dose pregabalin): no reported side effects or withdrawal symptoms; also recorded: none of the fifteen (15) patients experienced side effects or withdrawal symptoms | patients who decreased their opioids temporally related to (after) starting pregabalin ([1]; of fifteen patients): 2 patients | patients who stopped or decreased their opioids temporally related to (after) starting pregabalin ([1]; of fifteen patients, chart review): ≥ 7 patients | patients who stopped their opioids temporally related to (after) starting pregabalin ([1]; of fifteen patients, one continued tramadol 50 mg Q.I.D. prn): 5 patients | patients who elected to return to opioids for other reasons ([1]; of the fifteen-patient cohort, also effectively cured of cravings): 2 patients | remaining patients, none of whom returned to opioids within the observation period ([1]; of the fifteen-patient cohort, opioids replaced with low doses of Lyrica (pregabalin)): 13 patients | patients started on pregabalin who stopped or decreased their use of opioids (total) ([1]; of the patient charts reviewed (fifteen)): ≥ 11 patients | patients who stopped their opioids while on pregabalin, relative timing not definitively established ([1]; of the remaining eight patients): 4 patients | efficacy for the indicated treatment of neuropathic pain (neuropathic pain): consistently ineffective

— patent US20240139135A1, “[…] TREATMENT OF OPIOID USE DISORDER” (THE TRUSTEES OF INDIANA UNIVERSITY, priority 2019, published 2024)
